Experimental data from patent publication EP3295938B1, “USE OF TRIETHYL ORTHOACETATE IN THE TREATMENT OF METAL OVERLOAD DISEASES” (ÜSKÜDAR ÜNIVERSITESI, priority 2016, dated 2018).

What was measured:
[1] = Iron chelation activity (FeSO4/ferrozine, absorbance at 562 nm); type: biochemical; details: 100, 200 and 400 mM pure triethyl orthoacetate (Fig. 7)
Description: Negative controls and methanolicmicroalgae extracts (400 µl) were pipetted into 24 well plate, then 100 µl of 0.25mM FeSO4 solution (dissolved in methanol) was added. For the reaction initiation, 100 µl 5mM ferrozine dissolved in methanol was added. Solution was homogenized by pipetting and incubated for 10 minutes at room temperature. After incubation, it was analysed by using spectrophotometric measurement at 562nm wavelength. In vitro experiments with pure triethyl orthoacetate compound was also conducted with the concentrations of 100, 200 and 400 mM respectively. Same experimental protocol was used for pure triethyl orthoacetate as described in detail above for Spirulina platensis extract.

[2] = after intravenous infusion; cited from earlier work

| Structure (SMILES) | in vitro iron chelating activity [1] [%] | vascular half-life [2] [min] |
| --- | --- | --- |
| CCOC(C)(OCC)OCC [triethyl orthoacetate, Triethyl orthoacetate] | > 70 | – |
| CC(=O)N(O)CCCCCNC(=O)CCC(=O)N(O)CCCCCNC(=O)CCC(=O)N(O)CCCCCN [deferoxamine] | – | 5 to 10 |
